EC50 and IC50 data for 19 molecules are collected here from patent US12391702B2, “Benzo[5,6][1,4]dioxino[2,3-b]pyridine compounds useful as IRAK4 inhibitors” (BRISTOL-MYERS SQUIBB COMPANY, priority 2020, dated 2025).

Chain of IRAK4 (Q9NWZ3 whole entry): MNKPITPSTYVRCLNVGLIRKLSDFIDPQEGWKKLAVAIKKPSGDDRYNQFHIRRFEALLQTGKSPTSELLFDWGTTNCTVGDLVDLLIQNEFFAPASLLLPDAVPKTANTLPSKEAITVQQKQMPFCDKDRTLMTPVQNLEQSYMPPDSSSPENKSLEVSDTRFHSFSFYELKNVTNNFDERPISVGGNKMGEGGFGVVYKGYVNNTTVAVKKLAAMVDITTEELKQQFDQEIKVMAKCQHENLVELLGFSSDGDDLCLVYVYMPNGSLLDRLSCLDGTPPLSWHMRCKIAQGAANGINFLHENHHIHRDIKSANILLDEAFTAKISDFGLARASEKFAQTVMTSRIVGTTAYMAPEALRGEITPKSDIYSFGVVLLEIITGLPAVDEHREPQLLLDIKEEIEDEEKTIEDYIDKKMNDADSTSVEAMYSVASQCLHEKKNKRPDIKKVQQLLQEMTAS

The first experiment concerns Human whole blood stimulated with a TLR2 agonist (lipoteichoic acid), IL-6 levels. The experiment can be described thus: IRAK4 Whole Blood Assay. The experiment is classed as cell-based. The settings on record: 10 μg/mL lipoteichoic acid for 5 hours. The procedure:
Human whole blood containing the anti-coagulant ACD-A was plated in 384-well plate (25 μL/well) and incubated with compounds for 60 minutes at 37° C. in a 5% CO2 incubator. The blood was stimulated with a TLR2 agonist, 10 μg/mL final concentration of lipoteichoic acid (Invivogen, San Diego, CA) in 25 μL RPMI (Gibco) for 5 hours in a 5% CO2 incubator. At the end of the incubation, plates were centrifuged at 2300 rpm for 5 minutes. Supernatants were harvested and analyzed for IL-6 levels by Flow Cytometry beads assay (BD Biosciences, San Jose, CA).
The EC50 is the concentration at which the effect is half-maximal. Consider `CC(C)Nc1c(C(=O)NC[C@@H](F)C(C)(C)O)cnc2c1Oc1ccc(C#N)cc1O2` [Example 2, (R)-8-cyano-N-(2-fluoro-3-hydroxy-3-methylbutyl)-4-(isopropylamino)benzo[5,6][1,4]dioxino[2,3-b]pyridine-3-carboxamide], for which the midpoint of the response, the EC50, lay at 1700 nM.

In a further experiment the target is IRAK4 (Homo sapiens (Human), UniProt Q9NWZ3). The experiment in a line: IRAK4 Inhibition Assay. The settings on record: ATP 500 μM; IRAK4 0.6 nM; 60 min at room temperature. The experiment is classed as biochemical. The procedure:
The assays were performed in U-bottom 384-well plates. The final assay volume was 30 μL prepared from 15 μL additions of enzyme and substrates (fluoresceinated peptide and ATP) and test compounds in assay buffer (20 mM HEPES pH 7.2, 10 mM MgCl2, 0.015% Brij 35 and 4 mM DTT). The reaction was initiated by the combination of IRAK4 with substrates and test compounds. The reaction mixture was incubated at room temperature for 60 min. and terminated by adding 45 μL of 35 mM EDTA to each sample. The reaction mixture was analyzed on the Caliper LABCHIP® 3000 (Caliper, Hopkinton, MA) by electrophoretic separation of the fluorescent substrate and phosphorylated product. Inhibition data were calculated by comparison to no enzyme control reactions for 100% inhibition and vehicle-only reactions for 0% inhibition. The final concentrations of reagents in the assays are ATP, 500 μM; FL-IPTSPITTTYFFFKKK peptide 1.5 μM; IRAK4, 0.6 nM; and DMSO, 1.6%.
As usually defined, the IC50 is the concentration that gives 50% inhibition. Regarding `CC(C)Nc1c(C(=O)NC2CCCOC2)cnc2c1Oc1cc(C#N)ccc1O2` (centres unmarked) [Example 9, 7-cyano-4-(isopropylamino)-N-(tetrahydro-2H-pyran-3-yl)benzo[5,6][1,4]dioxino [2,3-b]pyridine-3-carboxamide], the IC50 was 92 nM.
Still for that read-out and setting: the result for `CC(C)CCNC(=O)c1cnc2c(c1NC(C)C)Oc1cc(C#N)ccc1O2` [Example 16, 7-cyano-N-isopentyl-4-(isopropylamino)benzo[5,6][1,4]dioxino[2,3-b]pyridine-3-carboxamide] reads 23 nM; that for `CC(C)Nc1c(C(=O)NCC2(CO)COC2)cnc2c1Oc1cc(C#N)ccc1O2` [Example 18, 7-cyano-N-((3-(hydroxymethyl)oxetan-3-yl)methyl)-4-(isopropylamino)benzo [5,6][1,4]dioxino[2,3-b]pyridine-3-carboxamide], 240 nM; that for `CC(C)Nc1c(C(=O)N[C@H](C)CCO)cnc2c1Oc1cc(C#N)ccc1O2` [Example 10, (R)-7-cyano-N-(4-hydroxybutan-2-yl)-4-(isopropylamino)benzo[5,6][1,4]dioxino [2,3-b]pyridine-3-carboxamide], 160 nM.
Same read-out and setting: in the case of `CC(C)Nc1c(C(=O)NCc2nnc[nH]2)cnc2c1Oc1cc(C#N)ccc1O2` [Example 12, N-((4H-1,2,4-triazol-3-yl)methyl)-7-cyano-4-(isopropylamino)benzo[5,6][1,4]dioxino [2,3-b]pyridine-3-carboxamide] it was 140 nM; in that of `COCCNC(=O)c1cnc2c(c1NC(C)C)Oc1cc(C#N)ccc1O2` [Example 5, 7-cyano-4-(isopropylamino)-N-(2-methoxyethyl)benzo[5,6][1,4]dioxino[2,3-b]pyridine-3-carboxamide], 150 nM; in that of `CC(C)Nc1c(C(=O)NC(CCO)C2CC2)cnc2c1Oc1cc(C#N)ccc1O2` (centres unmarked) [Example 8, 7-cyano-N-(1-cyclopropyl-3-hydroxypropyl)-4-(isopropylamino)benzo[5,6][1,4]dioxino[2,3-b]pyridine-3-carboxamide], 220 nM.
The same measure, in the same setting: in the case of `CC(C)Nc1c(C(=O)NC2CCNCC2)cnc2c1Oc1cc(C#N)ccc1O2` [Example 20, 7-cyano-4-(isopropylamino)-N-(piperidin-4-yl)benzo[5,6][1,4]dioxino[2,3-b]pyridine-3-carboxamide] it was 85 nM.
For the molecule `CC(C)Nc1c(C(=O)NCc2nccs2)cnc2c1Oc1cc(C#N)ccc1O2` [Example 19, 7-cyano-4-(isopropylamino)-N-(thiazol-2-ylmethyl)benzo[5,6][1,4]dioxino[2,3-b]pyridine-3-carboxamide], the half-maximal inhibitory concentration (IC50) stood at 170 nM.
Same read-out and setting: in the case of `CC(C)Nc1c(C(=O)NCC(C)(C)CO)cnc2c1Oc1cc(C#N)ccc1O2` [Example 7, 7-cyano-N-(3-hydroxy-2,2-dimethylpropyl)-4-(isopropylamino)benzo[5,6][1,4]dioxino[2,3-b]pyridine-3-carboxamide] it was 270 nM; in that of `CC(C)Nc1c(C(=O)NCC2(CO)CC2)cnc2c1Oc1cc(C#N)ccc1O2` [Example 11, 7-cyano-N-((1-(hydroxymethyl)cyclopropyl)methyl)-4-(isopropylamino)benzo [5,6][1,4]dioxino[2,3-b]pyridine-3-carboxamide], 440 nM; in that of `CCOCCNC(=O)c1cnc2c(c1NC(C)C)Oc1cc(C#N)ccc1O2` [Example 4, 7-cyano-N-(2-ethoxyethyl)-4-(isopropylamino)benzo[5,6][1,4]dioxino[2,3-b]pyridine-3-carboxamide], 82 nM.
On the same count and under the same terms, in the case of `CC(C)Nc1c(C(=O)NCCC(C)(C)O)cnc2c1Oc1cc(C#N)ccc1O2` [Example 15, 7-cyano-N-(3-hydroxy-3-methylbutyl)-4-(isopropylamino)benzo[5,6][1,4]dioxino [2,3-b]pyridine-3-carboxamide] it was 22 nM; in that of `Cc1cc(CNC(=O)c2cnc3c(c2NC(C)C)Oc2cc(C#N)ccc2O3)on1` [Example 14, 7-cyano-4-(isopropylamino)-N-((3-methylisoxazol-5-yl)methyl)benzo[5,6][1,4]dioxino[2,3-b]pyridine-3-carboxamide], 530 nM; in that of `CC(C)Nc1c(C(=O)N[C@H]2CC[C@H](N)CC2)cnc2c1Oc1cc(C#N)ccc1O2` [Example 17, N-((1R,4R)-4-aminocyclohexyl)-7-cyano-4-(isopropylamino)benzo[5,6][1,4]dioxino [2,3-b]pyridine-3-carboxamide], 34 nM.
In the case of `CC(C)Nc1c(C(=O)NC2CCOCC2)cnc2c1Oc1cc(C#N)ccc1O2` [Example 3, 7-cyano-4-(isopropylamino)-N-(tetrahydro-2H-pyran-4-yl)benzo[5,6][1,4]dioxino [2,3-b]pyridine-3-carboxamide], the IC50 was 60 nM.
Same read-out and setting: the result for `CC(C)Nc1c(C(=O)NCc2cnco2)cnc2c1Oc1cc(C#N)ccc1O2` [Example 13, 7-cyano-4-(isopropylamino)-N-(oxazol-5-ylmethyl)benzo[5,6][1,4]dioxino[2,3-b]pyridine-3-carboxamide] reads 180 nM.
On the same count and under the same terms, in the case of `CC(C)Nc1c(C(=O)N[C@H]2CC[C@H](O)CC2)cnc2c1Oc1cc(C#N)ccc1O2` [Example 6, 7-cyano-N-((1r,4r)-4-hydroxycyclohexyl)-4-(isopropylamino)benzo[5,6][1,4]dioxino[2,3-b]pyridine-3-carboxamide] it was 31 nM; in that of `CC(C)Nc1c(C(=O)NC[C@@H](F)C(C)(C)O)cnc2c1Oc1ccc(C#N)cc1O2` [Example 2, (R)-8-cyano-N-(2-fluoro-3-hydroxy-3-methylbutyl)-4-(isopropylamino)benzo[5,6][1,4]dioxino[2,3-b]pyridine-3-carboxamide], 8.5 nM.
